Assay results from patent publication US20240122929A1, “BODY TEMPERATURE LOWERING AGENT, BODY TEMPERATURE ELEVATION SUPPRESSOR, FOOD COMPOSITION FOR LOWERING BODY TEMPERATURE,AND FOOD COMPOSITION FOR SUPPRESSING BODY TEMPERATURE ELEVATION” (University of Tsukuba, priority 2021, published 2024).

Tests used:
male Wistar rat [1] = experiment: Effect of orotic acid on core body temperature at rest (telemetry, breath gas analysis, spontaneous activity); type: in vivo
Description: The body temperature lowering action of the body temperature lowering agent according to the embodiment of the present invention can be measured by a method for measuring the core body temperature at rest. The core body temperature at rest can be measured in accordance with a known method, for example, the method described in an article of Takahashi et al. (Nature 583: 109-114, 2020) and the like. Specifically, the measurement can be performed in the following manner. The core body temperature at rest is measured using a TRM54P Rat Telemetry System (available from KAHA Sciences) and SmartPad (TR181: available from KAHA Sciences) and quantified. The main body of TRM54P Rat Telemetry System is indwelled in the abdominal cavity of a test animal for measurement. All experiments are performed in the light phase, and on the day of the experiments, a rat is fasted 2 hours before start of the test to eliminate the effect of food-induced heat production. After the core body temperature at rest is measured for 20 minutes, a drug (orotic acids) or vehicle is intraperitoneally administered, and the core body temperature is measured for 120 minutes. In a case where the core body temperature at rest is lowered as compared with a case where orotic acids are not administered, it can be determined that the orotic acids have a body temperature lowering action. A 10-week-old male Wistar rat was used, and a one-week preliminary breeding period was provided before the day of an experiment. During the experiment, room temperature was maintained at 22±2° C. After the preliminary breeding, a telemetry (TRM54P, available from KAHA Sciences) for measuring the body temperature was indwelled in the abdominal cavity, and a recovery period and an acclimation period were provided for one week each. 300 mg/kg orotic acid, 30 mg/kg orotic acid, or a vehicle (1% carboxymethyl cellulose) was intraperitoneally administered to examine the effect on the core body temperature at rest. In addition to the core body temperature and a heart rate, an oxygen/carbon dioxide intake was measured using a breath gas analyzer (trade name: Oxymax, available from Columbus Instruments) to calculate a respiratory exchange ratio (also referred to as RER) and an amount of heat production. In addition, the amount of spontaneous activity was measured using an infrared beam sensor (trade name: beam sensor type spontaneous activity amount measuring device, available from Panlab). Note that in the experiment, the rat was placed under fasting for 2 hours before the start of the experiment, and the core body temperature at rest was measured for 20 minutes. Thereafter, the orotic acid or vehicle was intraperitoneally administered, and the measurement was performed until 2 hours later. The orotic acid was used in a free form.

rat = conditions: orotic acid administered to a rat, Non-Patent Document 2; cited from earlier work
male Wistar rat [2] = experiment: Effect of orotic acid on core body temperature during treadmill exercise; type: in vivo; conditions: treadmill 20 m/min for 30 minutes
Description: The body temperature elevation suppressing action of the body temperature elevation suppressor according to the embodiment of the present invention can be measured by a method for measuring the core body temperature during exercise. The core body temperature during exercise can be measured in accordance with a known method, for example, a method described in the article by Takahashi et al. (Nature 583: 109-114, 2020) and the like. Specifically, the measurement can be performed in the following manner. A rat is placed in a treadmill metabolism chamber for small animals having an inclination of 10°, and after measuring the core body temperature at rest for 20 minutes, a single dose of a drug (orotic acids) is administered intraperitoneally. After the administration, the rat is left in a rest state for 15 minutes, and then exercise is started. The exercise is started at a running speed of 5 m/min, the running speed is increased to 20 m/min over 5 minutes, and the core body temperature is measured in the same manner as the method for measuring the core body temperature at rest. In a case where the core body temperature elevation during exercise is suppressed as compared with a case where the orotic acids are not administered, it can be determined that the orotic acids have the body temperature elevation suppressing action. A 10-week-old male Wistar rat was used, and a one-week preliminary breeding period was provided before the day of an experiment. During the experiment, room temperature was maintained at 22±2° C. After the preliminary breeding, a telemetry (trade name: TRM54P, available from KAHA Sciences) for measuring the body temperature was indwelled in the abdominal cavity, and a running test was performed after a recovery period of one week. Note that in the experiment, after 300 mg/kg orotic acid or a vehicle (physiological saline) was intraperitoneally administered in a rest state, treadmill exercise (20 m/min) was performed for 30 minutes, and the measurement was performed until 1 hour after the end of the exercise. The measurement items were core body temperature, a blood pressure, a heart rate, and breath gas metabolism. From the obtained oxygen/carbon dioxide intake, exercise economy was calculated. The orotic acid was used in a free form.

For O=C(O)c1cc(=O)[nH]c(=O)[nH]1 [orotic acid], the “amount of spontaneous activity at rest” value (male Wistar rat [1]; 30 mg/kg and 300 mg/kg intraperitoneal vs vehicle, infrared beam sensor, FIG. 4) was “no difference between the groups”, the “core body temperature at rest, dose dependence” value (male Wistar rat [1]; 30 mg/kg and 300 mg/kg intraperitoneal, FIG. 1) was “decreased in a concentration dependent manner” and the “heart rate at rest” value (male Wistar rat [1]; 30 mg/kg and 300 mg/kg intraperitoneal, FIG. 2) was “did not fluctuate”. The “core body temperature at rest” value (male Wistar rat [1]; 300 mg/kg intraperitoneal, vs vehicle (1% carboxymethyl cellulose), measured until 2 hours after administration, FIG. 1) was “significantly decreased”, the “amount of heat production at rest” value (male Wistar rat [1]; 300 mg/kg intraperitoneal, vs vehicle, breath gas analyzer, FIG. 3) was “significantly decreased” and the “contraction phase, diastole phase and mean blood pressure at rest” value (male Wistar rat [1]; orotic acid administered groups (30 and 300 mg/kg intraperitoneal), data not shown) was “significantly increased”. For the same compound, the body temperature (rat) was “not lowered”, the exercise economy (male Wistar rat [2]; 300 mg/kg intraperitoneal vs vehicle (physiological saline), FIG. 8) was “increased” and the “excessive core body temperature elevation during exercise” value (male Wistar rat [2]; 300 mg/kg intraperitoneal vs vehicle, FIG. 5) was “suppressed”. The “heart rate during exercise” value (male Wistar rat [2]; 300 mg/kg intraperitoneal vs vehicle, FIG. 6) was “significantly decreased” and the “amount of heat production during exercise” value (male Wistar rat [2]; 300 mg/kg intraperitoneal vs vehicle, FIG. 7) was “lowered”.
